Results from patent US10774051B2, “6-membered heterocyclic derivatives and pharmaceutical composition comprising the same” (Shionogi & Co., Ltd., priority 2015, dated 2020).

What follows are compounds tested against human P2X7 receptor (Homo sapiens, UniProt Q99572, R270H/Y155H) (assay: Evaluation of human P2X7 receptor inhibitory activity (Yo-Pro uptake, BzATP stimulation, FLIPR TETRA)). Conditions: 1321N1 cells stably expressing human P2X7 receptor; BzATP stimulation, Yo-Pro uptake; read-out: IC50 (antagonistic activity for the human P2X7 receptor).
Assay type: cell-based
How it was run: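 Yo-Pro dye uptake triggered by BzATP was monitored by FLIPR in human P2X7-transfected 1321N1 cells (SNP variant) in HEPES-buffered HBSS, pH 7.4-7.5. Compound was dispensed 8 min post-stimulation, then signal read for 20 min; IC50 derived logistically from inhibition of the fluorescence range.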

| SMILES | IC50 |
| --- | --- |
| Cc1ccc(-c2ncco2)cc1Nc1nc(=O)c(F)cn1Cc1ccc(F)c(Cl)c1 [Compound I-0849] | 3 nM |
| COc1cn(Cc2cc(F)cc(F)c2)c(Nc2ccc3ncsc3c2C)nc1=O [Compound I-0857] | 26 nM |
| COc1cn(Cc2ccccc2)c(Nc2ccc3nc(C)sc3c2C)nc1=O [Compound I-0858] | 10 nM |
| COc1cn(Cc2cc(F)cc(F)c2)c(Nc2cc3c(cc2C)OCC3)nc1=O [Compound I-0865] | 8 nM |

Same assay, conditions: antagonistic activity for the human P2X7 receptor; read-out: IC50

| SMILES | IC50 |
| --- | --- |
| Cc1cc(OC(F)F)c(C)cc1Nc1nc(=O)c(Cl)cn1Cc1ccc(F)c(Cl)c1 [Compound I-0837] | < 10 nM |
| Cc1cc(OC(F)F)c(C)cc1Nc1nc(=O)c(Cl)cn1Cc1ccc(F)c(F)c1 [Compound I-0838] | < 10 nM |
| Cc1cc(OC(F)F)c(C)cc1Nc1nc(=O)c(Cl)cn1Cc1cc(F)cc(F)c1 [Compound I-0839] | < 10 nM |
| COc1ccc(Nc2nc(=O)c(F)cn2Cc2ccc(F)c(Cl)c2)c(C)c1 [Compound I-0840] | < 10 nM |
| COc1ccc(Nc2nc(=O)c(F)cn2Cc2ccc(F)c(F)c2)c(C)c1 [Compound I-0841] | < 10 nM |
| COc1ccc(Nc2nc(=O)c(Cl)cn2Cc2ccc(F)c(Cl)c2)c(C)c1 [Compound I-0843] | 10 to 100 nM |
| COc1ccc(Nc2nc(=O)c(Cl)cn2Cc2ccc(F)c(F)c2)c(C)c1 [Compound I-0844] | < 10 nM |
| COc1ccc(Nc2nc(=O)c(Cl)cn2Cc2cc(F)cc(F)c2)c(C)c1 [Compound I-0845] | 10 to 100 nM |
| COc1ccc(Cl)c(Nc2nc(=O)c(OC)cn2Cc2cc(F)c(F)c(F)c2)c1 [Compound I-0846] | < 10 nM |
| COc1ccc(Nc2nc(=O)c(OC)cn2Cc2cc(F)c(F)c(F)c2)c(Cl)c1 [Compound I-0847] | < 10 nM |
| COc1cc(Cl)c(Nc2nc(=O)c(OC)cn2Cc2cc(F)c(F)c(F)c2)cc1OC [Compound I-0848] | < 10 nM |
| Cc1ccc(-c2ncco2)cc1Nc1nc(=O)c(F)cn1Cc1ccc(F)c(F)c1 [Compound I-0850] | < 10 nM |
| Cc1ccc(-c2ncco2)cc1Nc1nc(=O)c(F)cn1Cc1cc(F)cc(F)c1 [Compound I-0851] | < 10 nM |
| Cc1ccc(-c2ncco2)cc1Nc1nc(=O)c(Cl)cn1Cc1ccc(F)c(Cl)c1 [Compound I-0852] | < 10 nM |
| Cc1ccc(-c2ncco2)cc1Nc1nc(=O)c(Cl)cn1Cc1ccc(F)c(F)c1 [Compound I-0853] | < 10 nM |
| Cc1ccc(-c2ncco2)cc1Nc1nc(=O)c(Cl)cn1Cc1cc(F)cc(F)c1 [Compound I-0854] | < 10 nM |
| COc1cn(Cc2ccccc2)c(Nc2ccc3ncsc3c2C)nc1=O [Compound I-0855] | 10 to 100 nM |
| COc1cn(Cc2ccc(F)c(Cl)c2)c(Nc2ccc3ncsc3c2C)nc1=O [Compound I-0856] | 10 to 100 nM |
| COc1cn(Cc2ccc(F)c(Cl)c2)c(Nc2ccc3nc(C)sc3c2C)nc1=O [Compound I-0859] | 10 to 100 nM |
| COc1cn(Cc2cc(F)cc(F)c2)c(Nc2ccc3nc(C)sc3c2C)nc1=O [Compound I-0860] | 10 to 100 nM |
| Cc1ccc(-c2cscn2)cc1Nc1nc(=O)c(F)cn1Cc1ccc(F)c(F)c1 [Compound I-0861] | < 10 nM |
| CCOc1ccc(C)c(Nc2nc(=O)c(OC)cn2Cc2cc(F)c(F)c(F)c2)c1 [Compound I-0862] | < 10 nM |
| COc1cc(Nc2nc(=O)c(OC)cn2Cc2cc(F)c(F)c(F)c2)c(C)cc1F [Compound I-0863] | < 10 nM |
| COc1cn(Cc2ccc(F)c(Cl)c2)c(Nc2cc3c(cc2C)OCC3)nc1=O [Compound I-0864] | < 10 nM |
| COc1cn(Cc2cc(F)c(F)c(F)c2)c(Nc2cc3c(cc2C)OCC3)nc1=O [Compound I-0866] | < 10 nM |
| Cc1ccc(-c2cscn2)cc1Nc1nc(=O)c(F)cn1Cc1cc(F)cc(F)c1 [Compound I-0867] | < 10 nM |
| CCOc1cc(C)c(Nc2nc(=O)c(OC)cn2Cc2cc(F)c(F)c(F)c2)cc1F [Compound I-0868] | 10 to 100 nM |
| COc1cn(Cc2cc(F)c(F)c(F)c2)c(Nc2cc(OC(F)(F)F)ccc2C)nc1=O [Compound I-0869] | 10 to 100 nM |
